In patent publication US7981883B2, “Substituted spiro-compounds and the use thereof for producing medicaments” (Gruenenthal GmbH, priority 2005, dated 2011):

Columns and labels:
VR1 (rat) = target: T1, VR1 (rat) (Rattus norvegicus, UniProt O35433); assay: Functional FLIPR Ca2+ inflow assay on rat-species vanilloid receptor 1 in rat dorsal root ganglia cells; assay type: cell-based; details: test compound 10 μM; for VR1 (rat) (% inhibition compared to 10 μM CP) / inhibition at 10 µM: then 100 nM capsaicin after 5 min, relative to maximum inhibition with 10 μM capsaicin; for VR1 (rat) (% stimulation compared to 10 μM CP) / activation at 10 µM: Ca2+ signal relative to 10 μM capsaicin (CP); for inhibition at 10 µM: read-out: VR1 (rat) (% inhibition compared to 10 μM CP); for activation at 10 µM: read-out: VR1 (rat) (% stimulation compared to 10 μM CP)
T1 construct: from tissue; host or cells: primary cells dissociated from rat dorsal root ganglia
T1 sequence (O35433 whole entry): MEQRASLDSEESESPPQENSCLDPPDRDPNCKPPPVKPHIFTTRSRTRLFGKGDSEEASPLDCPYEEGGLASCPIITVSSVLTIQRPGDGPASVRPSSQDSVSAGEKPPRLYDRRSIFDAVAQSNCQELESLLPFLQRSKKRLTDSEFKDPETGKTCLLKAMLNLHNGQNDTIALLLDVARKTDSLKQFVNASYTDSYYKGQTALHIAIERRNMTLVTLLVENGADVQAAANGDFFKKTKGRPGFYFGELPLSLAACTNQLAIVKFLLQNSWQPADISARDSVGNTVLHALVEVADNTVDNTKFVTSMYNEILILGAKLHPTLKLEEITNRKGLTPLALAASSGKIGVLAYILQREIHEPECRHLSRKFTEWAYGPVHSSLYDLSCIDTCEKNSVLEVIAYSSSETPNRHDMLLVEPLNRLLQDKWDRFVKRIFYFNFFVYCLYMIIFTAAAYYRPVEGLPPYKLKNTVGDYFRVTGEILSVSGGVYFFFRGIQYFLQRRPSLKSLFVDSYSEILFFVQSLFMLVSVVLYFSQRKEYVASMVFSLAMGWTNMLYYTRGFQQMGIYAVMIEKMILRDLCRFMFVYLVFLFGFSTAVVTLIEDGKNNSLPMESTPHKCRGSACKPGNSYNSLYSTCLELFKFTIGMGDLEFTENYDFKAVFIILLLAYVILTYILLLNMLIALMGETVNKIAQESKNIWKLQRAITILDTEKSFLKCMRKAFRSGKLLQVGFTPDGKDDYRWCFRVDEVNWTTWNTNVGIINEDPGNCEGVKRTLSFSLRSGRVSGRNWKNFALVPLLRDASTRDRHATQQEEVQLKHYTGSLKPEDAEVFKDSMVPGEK
Excerpt: I. Functional Testing Carried Out on the Vanilloid Receptor 1 (VR1/TRPV1 Receptor)
(§1) The agonistic or antagonistic effect of the substances to be tested can be determined on the rat-species vanilloid receptor 1 (VR1/TRPV1) using the following assay. According to this assay, the Ca^2+ inflow is quantified through the receptor channel using a Ca^2+-sensitive dye (type Fluo-4, Molecular Probes Europe BV, Leiden, Netherlands) in a fluorescent imaging plate reader (FLIPR, Molecular Devices, Sunnyvale, USA).
Complete medium: 50 mL HAMS F12 nutrient mixture (Gibco Invitrogen GmbH, Karlsruhe, Germany) with
10% by volume of FCS (foetal calf serum, Gibco Invitrogen GmbH, Karlsruhe, Germany, […]);
2 mM L-glutamine (Sigma, Munich, Germany);
1% by weight of AA solution (antibiotic/antimyotic solution, PAA, Pasching, Austria) and 25 ng/ml NGF medium (2.5 S, Gibco Invitrogen GmbH, Karlsruhe, Germany)
Cell culture plate: Poly-D-lysine-coated, black 96 well plates having a clear base (96 well black/clear plate, BD Biosciences, Heidelberg, Germany) were additionally coated with laminin (Gibco Invitrogen GmbH, Karlsruhe, Germany), the laminin being diluted with PBS (Ca—Mg-free PBS, Gibco Invitrogen GmbH, Karlsruhe, Germany) to a concentration of 100 μg/mL. Aliquots having a laminin concentration of 100 μg/mL were removed and stored at −20° C. The aliquots were diluted with PBS in a ratio of 1:10 to 10 μg/mL laminin and in each case 50 μL of the solution were pipetted into a recess in the cell culture plate. The cell culture plates were incubated for at least two hours at 37° C., the excess solution was removed by suction-filtration and the recesses were each washed twice with PBS. The coated cell culture plates were stored with excess PBS which was not removed until just before the feeding of the cells.
The vertebral column was removed from decapitated rats and placed immediately into cold HBSS buffer (Hank's buffered saline solution, Gibco Invitrogen GmbH, Karlsruhe, Germany), i.e. buffer located in an ice bath, mixed with 1% by volume (percent by volume) of an AA solution (antibiotic/antimyotic solution, PAA, Pasching, Austria). The vertebral column was cut longitudinally and removed together with fasciae from the vertebral canal. Subsequently, the dorsal root ganglia (DRG) were removed and again stored in cold HBSS buffer mixed with 1% by volume of an AA solution. The DRG, from which all blood remnants and spinal nerves had been removed, were transferred in each case to 500 μL of cold type 2 collagenase (PAA, Pasching, Austria) and incubated for 35 minutes at 37° C. After the addition of 2.5% by volume of trypsin (PAA, Pasching, Austria), incubation was continued for 10 minutes at 37° C. After complete incubation, the enzyme solution was carefully pipetted off and 500 μL of complete medium were added to each of the remaining DRG. The DRG were in each case suspended several times, drawn through cannulae No. 1, No. 12 and No. 16 using a syringe and transferred to a 50 mL Falcon tube which was filled up to 15 mL with complete medium. The contents of each Falcon tube was in each case filtered through a 70 μm Falcon filter element and centrifuged for 10 minutes at 1,200 rpm and room temperature. The resulting pellet was in each case taken up in 250 μL of complete medium and the number of cells determined.
The number of cells in the suspension was set to 3×10^5 per mL and 150 μL of this suspension were in each case introduced into a recess in the cell culture plates coated as described hereinbefore. In the incubator the plates were left for two to three days at 37° C., 5% by volume of CO2 and 95% relative humidity. […]

VR1 (human) = target: T2, VR1 (human) (Homo sapiens, UniProt Q8NER1); assay: Functional FLIPR Ca2+ inflow assay on VR1 (human), CHO K1 cells stably transfected with the VR1 gene; assay type: cell-based; details: test compound 10 μM; for VR1 (human) (% inhibition compared to 10 μM CP) / inhibition at 10 µM: then 100 nM capsaicin after 5 min, relative to maximum inhibition with 10 μM capsaicin; for VR1 (human) (% stimulation compared to 10 μM CP) / activation at 10 µM: Ca2+ signal relative to 10 μM capsaicin (CP); for inhibition at 10 µM / activation at 10 µM: CHO-K1; for inhibition at 10 µM: read-out: VR1 (human) (% inhibition compared to 10 μM CP); for activation at 10 µM: read-out: VR1 (human) (% stimulation compared to 10 μM CP)
T2 construct: expressed in transfected cells; host or cells: CHO K1 cells (ECACC)
T2 sequence (Q8NER1 whole entry): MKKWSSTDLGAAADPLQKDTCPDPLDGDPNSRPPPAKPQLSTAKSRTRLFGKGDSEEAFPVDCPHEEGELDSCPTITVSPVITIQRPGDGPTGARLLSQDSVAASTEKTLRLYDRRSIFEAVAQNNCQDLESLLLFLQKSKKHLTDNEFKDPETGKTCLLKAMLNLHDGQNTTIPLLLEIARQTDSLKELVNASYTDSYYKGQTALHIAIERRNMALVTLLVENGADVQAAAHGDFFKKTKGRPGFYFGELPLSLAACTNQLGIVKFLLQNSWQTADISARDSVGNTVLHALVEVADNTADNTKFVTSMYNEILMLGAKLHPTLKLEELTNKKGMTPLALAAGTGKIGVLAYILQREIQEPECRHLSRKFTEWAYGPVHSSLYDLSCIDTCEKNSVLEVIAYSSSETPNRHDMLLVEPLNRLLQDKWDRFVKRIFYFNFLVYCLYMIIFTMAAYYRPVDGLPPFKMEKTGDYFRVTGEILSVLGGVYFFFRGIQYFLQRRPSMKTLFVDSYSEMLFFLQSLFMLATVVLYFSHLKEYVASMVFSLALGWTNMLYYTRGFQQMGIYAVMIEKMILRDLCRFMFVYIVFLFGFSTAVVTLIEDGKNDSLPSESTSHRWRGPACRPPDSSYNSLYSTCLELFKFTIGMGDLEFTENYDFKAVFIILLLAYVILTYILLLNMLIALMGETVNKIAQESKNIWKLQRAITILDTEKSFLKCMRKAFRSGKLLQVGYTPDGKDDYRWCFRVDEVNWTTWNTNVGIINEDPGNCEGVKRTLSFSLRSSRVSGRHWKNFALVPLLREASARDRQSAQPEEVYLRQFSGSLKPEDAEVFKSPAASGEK
Excerpt: II. Functional Testing Carried Out on the Vanilloid Receptor (VR1)
as §1, with “can also” for “can”, “the” for “the rat-species”, “(VR1)” for “1 (VR1/TRPV1)”, “the” for “the receptor”
Chinese hamster ovary cells (CHO K1 cells, European Collection of Cell Cultures (ECACC) United Kingdom) were stably transfected with the VR1 gene. For functional testing, these cells were plated out on poly-D-lysine-coated black 96 well plates having a clear base (BD Biosciences, Heidelberg, Germany) at a density of 25,000 cells/well. The cells were incubated overnight at 37° C. and 5% CO2 in a culture medium (Ham's F12 nutrient mixture, 10% by volume of FCS (foetal calf serum), 18 μg/ml L-proline). The next day the cells were incubated with Fluo-4 (Fluo-4 2 μM, 0.01% by volume of Pluronic F127, Molecular Probes in HBSS (Hank's buffered saline solution), Gibco Invitrogen GmbH, Karlsruhe, Germany) for 30 minutes at 37° C. Subsequently, the plates were washed three times with HBSS buffer and after further incubation for 15 minutes at room temperature used for Ca^2+ measurement in a FLIPR assay. The Ca^2+-dependent fluorescence was measured before and after the addition of the substances to be tested (λex wavelength=488 nm, λem=540 nm). Quantification was carried out by measuring the highest fluorescence intensity (FC, Fluorescence Counts) over time.
The FLIPR protocol consists of 2 substance additions. First the compounds to be tested (10 μM) were pipetted onto the cells and the Ca^2+ inflow was compared with the control (capsaicin 10 μM) (% activation based on the Ca^2+ signal after the addition of 10 μM capsaicin). After 5 minutes' incubation, 100 nM of capsaicin were administered and the Ca^2+ inflow was also determined.
Desensitising agonists and antagonists led to suppression of the Ca^2+ inflow. The % inhibition was calculated compared to the maximum achievable inhibition with 10 μM of capsaicin.

Compound	VR1 (rat) (% inhibition compared to 10 μM CP) (VR1 (rat)) [%]	VR1 (rat) (% stimulation compared to 10 μM CP) (VR1 (rat)) [%]	VR1 (human) (% inhibition compared to 10 μM CP) (VR1 (human)) [%]	VR1 (human) (% stimulation compared to 10 μM CP) (VR1 (human)) [%]	inhibition at 10 µM (VR1 (rat)) [%]	activation at 10 µM (VR1 (rat)) [%]	inhibition at 10 µM (VR1 (human)) [%]	activation at 10 µM (VR1 (human)) [%]
CC(C)(C)C1CCC2(CC1)CC(C(=O)NCc1ccc(NS(C)(=O)=O)cc1)=NO2 (stereo not drawn) [Example 2, trans-8-tert-butyl-1-oxa-2-azaspiro[4.5]dec-2-ene-3-carboxylic acid-4-methanesulphonylaminobenzylamide]	100.87	−15.97	58.09	−0.32				
CC(C)(C)C1CCC2(CC1)CC(C(=O)NCc1ccc(N)cc1)=NO2 (stereo not shown) [Example 1, 8-tert-butyl-1-oxa-2-azaspiro[4.5]dec-2-ene-3-carboxylic acid-4-aminobenzylamide]					71.3	44.7	23.6	20.7
CC(C)(C)C1CCC2(CC1)CC(C(=O)NCc1ccncc1)=NO2 (stereo not drawn) [Example 23, trans-8-tert-butyl-1-oxa-2-azaspiro[4.5]dec-2-ene-3-carboxylic acid (pyridin-4-ylmethyl)amide]	69.46	55.21	54.21	23.79				
COc1cc2c(cc1OC)CN(C(=O)C1=NO[C@]3(CC[C@@H](C(C)(C)C)CC3)C1)CC2 [Example 19, cis-(8-tert-butyl-1-oxa-2-azaspiro[4.5]dec-2-en-3-yl)-(6,7-dimethoxy-3,4-dihydro-1H-isoquinolin-2-yl)methanone]	95.49	70.81	22.55	13.41				
CC(C)(C)C1CCC2(CC1)CC(C(=O)Nc1ccc(NS(C)(=O)=O)c(F)c1)=NO2 (stereo not shown) [Example 90, 8-tert-butyl-N-(3-fluoro-4-(methylsulphonamido)phenyl)-1-oxa-2-azaspiro[4.5]dec-2-ene-3-carboxamide]					100	43	34	36
CC(C)(C)C1CCC2(CC1)CC(C(=O)NCc1ccc(NS(C)(=O)=O)cc1)=NO2 (stereo not drawn) [Example 3, cis-8-tert-butyl-1-oxa-2-azaspiro[4.5]dec-2-ene-3-carboxylic acid-4-methanesulphonylaminobenzylamide]	102.62	0.10	80.10	−1.29				
CC(C)(C)c1ccc(NC(=O)C2CCC3(CC2)CC(C(=O)N2CCN(c4ncccc4Cl)CC2)=NO3)cc1 (stereo not shown) [Example 84, N-(4-tert-butylphenyl)-3-(4-(3-chloropyridin-2-yl)piperazin-1-carbonyl)-1-oxa-2-azaspiro[4.5]dec-2-ene-8-carboxamide]					103	61	31	33
CC(C)(C)C1CCC2(CC1)CC(C(=O)Nc1cccc3cnccc13)=NO2 (stereo not shown) [Example 4, 8-tert-butyl-1-oxa-2-azaspiro[4.5]dec-2-ene-3-carboxylic acid isoquinolin-5-ylamide]					73.7	-0.54	76.3	-0.33

More lines, now with the values ahead:

VR1 (rat) (% inhibition compared to 10 μM CP) (VR1 (rat)) [%]	VR1 (rat) (% stimulation compared to 10 μM CP) (VR1 (rat)) [%]	VR1 (human) (% inhibition compared to 10 μM CP) (VR1 (human)) [%]	VR1 (human) (% stimulation compared to 10 μM CP) (VR1 (human)) [%]	inhibition at 10 µM (VR1 (rat)) [%]	activation at 10 µM (VR1 (rat)) [%]	inhibition at 10 µM (VR1 (human)) [%]	activation at 10 µM (VR1 (human)) [%]	Compound
107	46	67	27					((5R,8R)-8-tert-butyl-1-oxa-2-azaspiro[4.5]dec-2-en-3-yl)(4-(3-chloropyridin-2-yl)-2,6-dimethylpiperazin-1-yl)methanone [Example 58]
97.79	87.96	83.01	91.72					CC(C)(C)[C@H]1CC[C@@]2(CC1)CC(C(=O)NCc1ccncc1)=NO2 [Example 24, cis-8-tert-butyl-1-oxa-2-azaspiro[4.5]dec-2-ene-3-carboxylic acid (pyridin-4-ylmethyl)amide]
52.32	0.37	6.75	−0.05					CC(C)(C)C1CCC2(CC1)CC(C(=O)N1CCCN(c3ncccc3Cl)CC1)=NO2 (stereo not drawn) [Example 21, trans-(8-tert-butyl-1-oxa-2-azaspiro[4.5]dec-2-en-3-yl)-[4-(3-chloropyridin-2-yl)-[1,4]diazepan-1-yl]methanone]
				98.3	1.04	56.5	0.16	CC(C)(C)[C@H]1CC[C@]2(CC1)CC(C(=O)NCc1ccc(NS(C)(=O)=O)c(F)c1)=NO2 [Example 25, trans-8-tert-butyl-1-oxa-2-azaspiro[4.5]dec-2-ene-3-carboxylic acid-3-fluoro-4-methanesulphonylaminobenzylamide]
				101	87	54	53	COc1cccc(C2=NOC3(CCC(C(=O)Nc4ccc(C(C)(C)C)cc4)CC3)C2)c1 (stereo not shown) [Example 66, N-(4-tert-butylphenyl)-3-(3-methoxyphenyl)-1-oxa-2-azaspiro[4.5]dec-2-ene-8-carboxamide]
